How the values were obtained:
[1] = Inhibition of PI4K3alpha in mouse NIH3T3 cells co-expressing PDGFRbeta receptor assessed as inhibition of PDGF-induced IP1 accumulation incubated for 30 mins by HTRF based assay; type: cell-based; settings: NIH3T3, 0.5 h
[2] = target: Phosphatidylinositol 4-phosphate 5-kinase type-1 gamma (Homo sapiens, UniProt O60331); test: Inhibition of PIP5K1C (unknown origin) using D-myo-phosphatidylinositol 4-phosphate substrate and ATP by ADP-Glo kinase Assay
[3] = target: Phosphatidylinositol 4,5-bisphosphate 3-kinase catalytic subunit beta isoform (Homo sapiens, UniProt P42338); test: Inhibition of PI3Kbeta (unknown origin) pre-incubated for 20 mins before phosphatidylinositol 4, 5-bisphosphate substrate addition by kinase-glo plus luminescence assay
Sequence of Phosphatidylinositol 4,5-bisphosphate 3-kinase catalytic subunit beta isoform (P42338 whole entry, canonical isoform): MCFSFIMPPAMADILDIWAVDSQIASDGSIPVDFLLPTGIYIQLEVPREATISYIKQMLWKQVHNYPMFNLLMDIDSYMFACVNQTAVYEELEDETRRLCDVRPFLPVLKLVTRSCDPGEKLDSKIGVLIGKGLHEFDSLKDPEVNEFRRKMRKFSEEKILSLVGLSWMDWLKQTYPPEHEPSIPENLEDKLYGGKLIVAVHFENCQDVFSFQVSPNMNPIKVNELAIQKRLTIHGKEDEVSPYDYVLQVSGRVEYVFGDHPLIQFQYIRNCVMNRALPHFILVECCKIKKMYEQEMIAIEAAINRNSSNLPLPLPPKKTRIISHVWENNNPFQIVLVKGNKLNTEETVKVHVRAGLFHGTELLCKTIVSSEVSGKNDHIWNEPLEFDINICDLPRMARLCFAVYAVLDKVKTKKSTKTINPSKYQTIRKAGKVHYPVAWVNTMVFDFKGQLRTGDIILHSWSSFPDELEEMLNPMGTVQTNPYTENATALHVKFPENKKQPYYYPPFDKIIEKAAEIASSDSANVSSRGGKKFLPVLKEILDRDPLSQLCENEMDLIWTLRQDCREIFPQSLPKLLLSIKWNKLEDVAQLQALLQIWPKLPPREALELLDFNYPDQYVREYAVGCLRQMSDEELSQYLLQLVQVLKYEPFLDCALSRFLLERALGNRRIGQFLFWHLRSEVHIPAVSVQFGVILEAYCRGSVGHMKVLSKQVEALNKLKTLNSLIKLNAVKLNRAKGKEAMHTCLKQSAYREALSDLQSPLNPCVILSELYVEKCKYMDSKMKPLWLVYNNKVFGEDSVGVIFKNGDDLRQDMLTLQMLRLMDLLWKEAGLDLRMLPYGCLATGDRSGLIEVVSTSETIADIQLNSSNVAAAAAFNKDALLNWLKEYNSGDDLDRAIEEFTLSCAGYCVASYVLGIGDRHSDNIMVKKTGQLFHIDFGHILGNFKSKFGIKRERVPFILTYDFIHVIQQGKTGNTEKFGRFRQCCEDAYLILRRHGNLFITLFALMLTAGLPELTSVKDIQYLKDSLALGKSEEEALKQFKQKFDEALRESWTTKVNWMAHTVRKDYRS

[4] = target: Phosphatidylinositol 4,5-bisphosphate 3-kinase catalytic subunit alpha isoform (Homo sapiens, UniProt P42336); test: Inhibition of PI3Kalpha (unknown origin) pre-incubated for 20 mins before phosphatidylinositol 4, 5-bisphosphate substrate addition by kinase-glo plus luminescence assay
Sequence of Phosphatidylinositol 4,5-bisphosphate 3-kinase catalytic subunit alpha isoform (P42336 whole entry, canonical isoform): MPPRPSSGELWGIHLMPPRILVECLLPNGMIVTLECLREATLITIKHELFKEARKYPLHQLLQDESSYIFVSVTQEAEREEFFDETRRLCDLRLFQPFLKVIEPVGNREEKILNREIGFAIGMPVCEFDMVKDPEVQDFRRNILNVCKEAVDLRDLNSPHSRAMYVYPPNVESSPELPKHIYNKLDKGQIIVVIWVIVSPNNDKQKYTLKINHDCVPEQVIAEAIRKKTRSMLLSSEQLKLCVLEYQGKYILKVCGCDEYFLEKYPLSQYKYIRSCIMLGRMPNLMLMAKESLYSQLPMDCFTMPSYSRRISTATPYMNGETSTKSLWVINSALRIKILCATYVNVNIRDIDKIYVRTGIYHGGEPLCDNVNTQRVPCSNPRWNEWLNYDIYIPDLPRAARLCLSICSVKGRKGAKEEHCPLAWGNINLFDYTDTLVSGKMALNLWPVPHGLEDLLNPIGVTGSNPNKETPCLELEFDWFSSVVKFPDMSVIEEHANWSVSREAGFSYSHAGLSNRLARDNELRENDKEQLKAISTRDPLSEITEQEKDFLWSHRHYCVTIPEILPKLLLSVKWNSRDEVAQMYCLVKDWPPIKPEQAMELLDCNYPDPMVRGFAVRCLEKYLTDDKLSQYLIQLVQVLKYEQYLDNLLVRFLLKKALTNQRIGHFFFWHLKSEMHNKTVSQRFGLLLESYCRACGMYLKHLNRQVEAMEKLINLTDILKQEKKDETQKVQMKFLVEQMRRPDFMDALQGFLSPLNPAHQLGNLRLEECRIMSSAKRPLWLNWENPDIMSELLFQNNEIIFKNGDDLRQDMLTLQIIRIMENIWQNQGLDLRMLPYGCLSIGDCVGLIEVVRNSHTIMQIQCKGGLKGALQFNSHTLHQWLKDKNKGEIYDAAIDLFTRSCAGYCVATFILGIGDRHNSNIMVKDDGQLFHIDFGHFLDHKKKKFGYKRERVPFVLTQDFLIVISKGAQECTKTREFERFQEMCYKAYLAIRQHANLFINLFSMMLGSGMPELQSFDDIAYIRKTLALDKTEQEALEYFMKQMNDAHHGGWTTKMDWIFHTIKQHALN

[5] = target: T1, Phosphatidylinositol 4,5-bisphosphate 3-kinase catalytic subunit delta isoform (Homo sapiens, UniProt O00329); test: Inhibition of PI3Kdelta (unknown origin) pre-incubated for 20 mins before phosphatidylinositol 4, 5-bisphosphate substrate addition by kinase-glo plus luminescence assay
T1 sequence (O00329 whole entry): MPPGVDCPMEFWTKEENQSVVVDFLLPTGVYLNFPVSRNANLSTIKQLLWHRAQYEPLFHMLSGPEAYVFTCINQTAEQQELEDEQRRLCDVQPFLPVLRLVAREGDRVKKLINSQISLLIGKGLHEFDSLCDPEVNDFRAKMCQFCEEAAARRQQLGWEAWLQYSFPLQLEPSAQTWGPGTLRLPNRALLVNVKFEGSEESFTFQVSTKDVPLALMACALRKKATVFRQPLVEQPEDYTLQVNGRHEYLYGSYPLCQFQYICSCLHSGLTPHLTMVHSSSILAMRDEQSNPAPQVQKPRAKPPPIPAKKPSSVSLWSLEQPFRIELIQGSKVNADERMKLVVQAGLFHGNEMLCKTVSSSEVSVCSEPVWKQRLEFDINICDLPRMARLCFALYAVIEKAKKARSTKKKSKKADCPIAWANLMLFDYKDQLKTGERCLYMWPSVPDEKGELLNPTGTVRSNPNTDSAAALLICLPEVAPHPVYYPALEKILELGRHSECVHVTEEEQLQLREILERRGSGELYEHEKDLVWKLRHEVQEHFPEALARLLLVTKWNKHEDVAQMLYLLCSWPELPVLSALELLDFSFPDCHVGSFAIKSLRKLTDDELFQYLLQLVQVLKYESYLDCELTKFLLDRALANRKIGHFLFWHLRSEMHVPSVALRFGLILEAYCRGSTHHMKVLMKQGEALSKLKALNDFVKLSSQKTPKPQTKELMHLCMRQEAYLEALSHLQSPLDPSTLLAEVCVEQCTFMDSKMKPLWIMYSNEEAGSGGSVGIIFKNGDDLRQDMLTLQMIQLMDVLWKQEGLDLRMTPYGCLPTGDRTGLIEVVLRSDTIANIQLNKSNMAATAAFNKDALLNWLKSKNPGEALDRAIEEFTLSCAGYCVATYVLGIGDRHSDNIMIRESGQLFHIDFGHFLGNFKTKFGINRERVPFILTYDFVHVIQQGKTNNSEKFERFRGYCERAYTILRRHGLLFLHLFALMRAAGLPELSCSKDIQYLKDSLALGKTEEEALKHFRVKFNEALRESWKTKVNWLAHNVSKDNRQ

[6] = target: Phosphatidylinositol 4,5-bisphosphate 3-kinase catalytic subunit gamma isoform (Homo sapiens, UniProt P48736); test: Inhibition of PI3Kgamma (unknown origin) pre-incubated for 20 mins before phosphatidylinositol 4, 5-bisphosphate substrate addition by kinase-glo plus luminescence assay
[7] = target: Phosphatidylinositol 4-kinase beta (Homo sapiens, UniProt Q9UBF8); test: Inhibition of N-terminal GST-tagged human full length recombinant PI4K3beta expressed in Sf9 cells using D-myo-phosphatidylinositol substrate and ATP incubated for 45 mins by ADP-Glo kinase Assay
Sequence of Phosphatidylinositol 4-kinase beta (Q9UBF8 whole entry): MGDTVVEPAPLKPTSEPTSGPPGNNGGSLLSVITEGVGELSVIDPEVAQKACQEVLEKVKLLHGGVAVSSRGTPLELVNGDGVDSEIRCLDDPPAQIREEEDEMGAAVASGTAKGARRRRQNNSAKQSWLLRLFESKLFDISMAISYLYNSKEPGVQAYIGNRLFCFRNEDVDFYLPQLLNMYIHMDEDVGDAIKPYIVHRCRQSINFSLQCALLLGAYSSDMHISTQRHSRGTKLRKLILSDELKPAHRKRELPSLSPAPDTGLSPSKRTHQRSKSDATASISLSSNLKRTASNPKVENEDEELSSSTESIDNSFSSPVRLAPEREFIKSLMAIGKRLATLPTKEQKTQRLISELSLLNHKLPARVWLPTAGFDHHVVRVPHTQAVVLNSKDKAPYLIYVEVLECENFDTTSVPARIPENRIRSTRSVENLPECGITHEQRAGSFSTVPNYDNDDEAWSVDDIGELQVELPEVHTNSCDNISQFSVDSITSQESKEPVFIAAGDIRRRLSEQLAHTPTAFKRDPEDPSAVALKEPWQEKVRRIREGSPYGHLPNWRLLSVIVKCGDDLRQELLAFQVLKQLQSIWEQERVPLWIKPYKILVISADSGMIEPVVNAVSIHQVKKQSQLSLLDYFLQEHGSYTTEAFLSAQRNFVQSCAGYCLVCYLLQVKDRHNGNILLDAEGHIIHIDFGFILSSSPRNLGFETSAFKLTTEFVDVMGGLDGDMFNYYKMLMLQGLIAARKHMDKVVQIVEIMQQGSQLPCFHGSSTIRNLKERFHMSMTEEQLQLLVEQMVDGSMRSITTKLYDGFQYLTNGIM

[8] = target: Phosphatidylinositol 4-kinase alpha (Homo sapiens, UniProt P42356); test: Inhibition of N-terminal FLAG-tagged human full length recombinant PI4K3alpha using D-myo-phosphatidylinositol substrate and ATP incubated for 45 mins by ADP-Glo kinase Assay
Sequence of Phosphatidylinositol 4-kinase alpha (P42356 whole entry): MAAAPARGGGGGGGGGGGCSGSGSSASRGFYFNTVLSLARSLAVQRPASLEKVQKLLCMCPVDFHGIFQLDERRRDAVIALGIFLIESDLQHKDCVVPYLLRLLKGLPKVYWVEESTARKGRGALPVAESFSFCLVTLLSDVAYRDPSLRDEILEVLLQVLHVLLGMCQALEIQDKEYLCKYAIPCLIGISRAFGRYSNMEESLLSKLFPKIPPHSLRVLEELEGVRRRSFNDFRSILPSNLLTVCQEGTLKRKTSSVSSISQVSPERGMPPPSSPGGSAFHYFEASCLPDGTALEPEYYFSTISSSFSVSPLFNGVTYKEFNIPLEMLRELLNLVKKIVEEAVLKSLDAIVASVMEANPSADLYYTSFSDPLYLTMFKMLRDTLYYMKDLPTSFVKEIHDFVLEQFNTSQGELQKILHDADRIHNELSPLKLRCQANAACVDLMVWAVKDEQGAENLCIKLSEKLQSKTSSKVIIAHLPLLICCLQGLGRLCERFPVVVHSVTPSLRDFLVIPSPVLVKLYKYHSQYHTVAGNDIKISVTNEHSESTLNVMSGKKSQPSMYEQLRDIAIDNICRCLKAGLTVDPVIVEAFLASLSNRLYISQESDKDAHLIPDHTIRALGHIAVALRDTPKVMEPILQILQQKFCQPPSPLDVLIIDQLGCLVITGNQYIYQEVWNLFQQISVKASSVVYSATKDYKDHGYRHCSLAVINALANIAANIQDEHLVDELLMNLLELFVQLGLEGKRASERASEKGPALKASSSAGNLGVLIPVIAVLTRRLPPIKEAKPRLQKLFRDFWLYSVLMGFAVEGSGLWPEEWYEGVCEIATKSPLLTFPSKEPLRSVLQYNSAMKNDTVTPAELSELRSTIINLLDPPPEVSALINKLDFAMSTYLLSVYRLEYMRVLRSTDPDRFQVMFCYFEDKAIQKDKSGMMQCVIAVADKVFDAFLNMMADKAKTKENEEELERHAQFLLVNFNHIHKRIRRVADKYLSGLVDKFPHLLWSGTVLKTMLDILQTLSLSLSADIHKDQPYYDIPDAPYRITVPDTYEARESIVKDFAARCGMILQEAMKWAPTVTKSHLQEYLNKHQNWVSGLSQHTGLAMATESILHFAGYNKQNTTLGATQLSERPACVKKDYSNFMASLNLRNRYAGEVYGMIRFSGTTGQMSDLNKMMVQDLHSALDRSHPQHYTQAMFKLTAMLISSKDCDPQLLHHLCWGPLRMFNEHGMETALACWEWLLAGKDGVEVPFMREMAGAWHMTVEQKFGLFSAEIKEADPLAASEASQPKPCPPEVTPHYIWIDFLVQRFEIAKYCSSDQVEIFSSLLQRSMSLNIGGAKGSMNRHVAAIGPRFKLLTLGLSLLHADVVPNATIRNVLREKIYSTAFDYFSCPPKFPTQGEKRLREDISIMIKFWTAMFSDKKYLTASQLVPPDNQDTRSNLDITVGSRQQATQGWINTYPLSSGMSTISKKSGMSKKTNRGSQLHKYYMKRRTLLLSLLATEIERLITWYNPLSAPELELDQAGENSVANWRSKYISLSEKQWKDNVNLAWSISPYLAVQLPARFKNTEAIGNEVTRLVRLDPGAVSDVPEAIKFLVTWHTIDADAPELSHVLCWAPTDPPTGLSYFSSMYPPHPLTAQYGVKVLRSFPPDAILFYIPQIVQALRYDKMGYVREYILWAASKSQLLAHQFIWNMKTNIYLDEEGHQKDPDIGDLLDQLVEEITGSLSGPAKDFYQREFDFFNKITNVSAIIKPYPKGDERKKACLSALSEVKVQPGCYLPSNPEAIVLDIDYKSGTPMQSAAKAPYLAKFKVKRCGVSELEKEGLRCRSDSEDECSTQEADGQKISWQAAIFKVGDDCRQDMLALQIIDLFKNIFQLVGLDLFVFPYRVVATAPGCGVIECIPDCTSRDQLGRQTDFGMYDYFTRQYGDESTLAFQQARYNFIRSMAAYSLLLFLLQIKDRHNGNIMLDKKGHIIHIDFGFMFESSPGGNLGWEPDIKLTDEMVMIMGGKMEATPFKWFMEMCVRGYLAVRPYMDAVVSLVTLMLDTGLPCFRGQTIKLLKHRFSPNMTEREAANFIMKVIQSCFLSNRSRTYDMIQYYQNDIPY

| SMILES | IC50 [1] [µM] | IC50 [2] [µM] | IC50 [3] [µM] | IC50 [4] [µM] | IC50 [5] [µM] | IC50 [6] [µM] | IC50 [7] [µM] | IC50 [8] [µM] |
| --- | --- | --- | --- | --- | --- | --- | --- | --- |
| C[C@@H](Nc1nc2ccc(-c3ccn(CC4CC4)c(=O)c3)cc2s1)C1CCOCC1 | 0.631 | > 100 | > 200 | > 200 | > 200 | 63.1 | 0.316 | 0.00794 |
| O=c1cc(-c2ccc3nc(NCC4CCOCC4)sc3c2)ccn1CC1CC1 | 0.794 | > 100 | > 200 | > 200 | 100 | 15.8 | 0.398 | 0.00501 |
| O=c1cc(-c2ccc3nc(NCC4CCS(=O)(=O)CC4)sc3c2)ccn1CC1CC1 | 0.631 | > 100 | > 200 | 79.4 | > 200 | 50.1 | 0.631 | 0.002 |
| CNCc1ccc(-c2ccc3nc(N)sc3c2)cn1 |  | > 100 | 79.4 | 63.1 | 63.1 | 50.1 | 3.16 | 2.51 |
| Nc1nc2ccc(-c3cnn(C4CC4)c3)cc2s1 |  | > 100 | 10 | 10 | 3.98 | 1 | 2 | 7.94 |
| CCN(C)c1ccc(-c2ccc3nc(N)sc3c2)cn1 |  | > 100 | 39.8 | 6.31 | 12.6 | 3.98 | 1.58 | 0.631 |
| O=c1cc(-c2ccc3nc(NC[C@H]4CC[C@H](C(=O)O)CC4)sc3c2)ccn1CC1CC1 | 0.316 |  | > 200 | 100 | > 79.4 | 10 | 0.251 | 0.001 |
| CC(C)Oc1ccc(-c2ccc3nc(N)sc3c2)cn1 |  | > 100 | 31.6 | 5.01 | 12.6 | 12.6 | 1.26 | 0.0794 |
| CN(C)C(=O)c1ccc(-c2ccc3nc(N)sc3c2)cn1 |  | > 100 | 79.4 | 39.8 | 63.1 | 20 | 39.8 | 1.26 |
| C[C@H](Nc1nc2ccc(-c3ccn(CC4CC4)c(=O)c3)cc2s1)C1CCOCC1 | 7.94 | 25.1 | > 200 | > 200 | > 200 | > 200 | 2.51 | 0.0398 |
| Nc1nc2ccc(-c3cnn(Cc4ccccc4)c3)cc2s1 |  | > 100 | 25.1 | 7.94 | 20 | 2 | 0.794 | 0.158 |
| CCCn1cc(-c2ccc3nc(N)sc3c2)cn1 |  | 25.1 | 12.6 | 12.6 | 12.6 | 1.58 | 2 | 1.58 |

Continued, values first:

| IC50 [1] [µM] | IC50 [2] [µM] | IC50 [3] [µM] | IC50 [4] [µM] | IC50 [5] [µM] | IC50 [6] [µM] | IC50 [7] [µM] | IC50 [8] [µM] | SMILES |
| --- | --- | --- | --- | --- | --- | --- | --- | --- |
| 0.501 | > 79.4 | > 126 | 6.31 | 12.6 | 1.58 | 1.58 | 0.00631 | Nc1nc2ccc(-c3ccn(CC4CC4)c(=O)c3)cc2s1 |
|  | > 100 | > 200 | 25.1 | > 200 | 10 | 10 | 0.631 | COCCOn1ccc(-c2ccc3nc(N)sc3c2)cc1=O |
|  | > 100 | 6.31 | 2 | 7.94 | 3.98 | 6.31 | 7.94 | Nc1nc2ccc(-c3cnccn3)cc2s1 |
|  | > 100 | 31.6 | 12.6 | 25.1 | 2.51 | 1 | 12.6 | Cn1nccc1-c1ccc2nc(N)sc2c1 |
|  | 10 | 39.8 | 158 | 12.6 | 10 | 7.94 | 25.1 | CS(=O)(=O)c1ccc(-c2ccc3nc(N)sc3c2)cn1 |
|  | > 100 | 0.251 | 0.251 | 0.316 | 0.126 | 3.98 | 0.398 | CS(=O)(=O)c1cncc(-c2ccc3nc(N)sc3c2)c1 |
|  | 63.1 | 15.8 | 6.31 | 12.6 | 2.51 | 1.26 | 2.51 | Cn1ccc(-c2ccc3nc(N)sc3c2)n1 |
|  | > 100 | 6.31 | 1.58 | 3.98 | 2 | 0.631 | 0.158 | CCOc1ccc(-c2ccc3nc(N)sc3c2)cn1 |
|  | 15.8 | 6.31 | 3.98 | 10 | 1.26 | 0.631 | 0.316 | Nc1nc2ccc(-c3cc[nH]c(=O)c3)cc2s1 |
|  | > 100 | 15.8 | 7.94 | 7.94 | 2.51 | 1.26 | 2.51 | Cn1cc(-c2ccc3nc(N)sc3c2)cn1 |
|  | 31.6 | 12.6 | 2 | 6.31 | 3.98 | 1 | 0.631 | CCNc1ccc(-c2ccc3nc(N)sc3c2)cn1 |

— ChEMBL document CHEMBL3600363, “Discovery of potent, selective small molecule inhibitors of α-subtype of type III phosphatidylinositol-4-kinase (PI4KIIIα)” (Bioorg Med Chem Lett, 2015)
